Residues, ends and D or L forms follow the SMILES beside them.
Tests used:
[1] = system: M4 melanoma cells; conditions: 50 μg/ml
Experimental: The collagen coating concentration (5 μg/ml) was chosen based on the concentration which yielded half-maximal levels of cellular motility. The inhibitory effect of the peptides on cell motility was determined by preincubating the cells with increasing concentrations of the peptides for 20 min. prior to the assay to allow for binding to cell surface receptors. Cells in the continued presence of peptides were then added to the upper wells of chambers containing the protein-coated filters.

[2] = system: K 1735 M4 melanoma cells; experiment: Melanoma cell adhesion and spreading on peptide-coated Immulon 1 wells; type: cell-based, mouse; conditions: K1735 M4 melanoma; surface coated at 100 μg/ml; average of three experiments
Experimental: Subconfluent cultures of M4 melanoma cells were radiolabeled overnight with 2 μCi/ml ^3 H-thymidine. […] The melanoma cells were then washed and resuspended to a final concentration of 3-4×10^4 cells/ml in DME supplemented with 20 mM Hepes and 10 mg/ml BSA. The cells remained viable (>95%) after this procedure, based upon exclusion of trypan blue dye.
(§1) Immulon 1 microtiter plates were prepared by drying down 100 μl/well of IV-H1 peptide which had been diluted to various concentrations (1-500 μg/ml) in Voller's carbonate buffer. The ability of the IV-H1 peptide to bind the plates was determined using radioiodinated peptides (described previously) in order to be certain that any differences in cell adhesion (or spreading) were not due to differential binding to surfaces. Nonspecific cell adhesion to sites on the plastic was blocked by the use of a 10 mg/ml solution of BSA in Voller's carbonate buffer at 37° C. for 1 hr. […] Adhesion was quantitated after washing to remove nonadherent and weakly adherent cells, by solubilizing the cells with 150 μl/well of 0.5N NaOH containing 1% SDS. Bound radioactivity was quantitated in a Beckman LS 3801 liquid scintillation counter. […] Each experiment was repeated a minimum of three times, and within a given experiment, each experimental point was determined in triplicate.

[3] = system: B104 neuroblastoma; experiment: Cell adhesion and spreading on coated peptide IV-H1 or type IV collagen; type: cell-based, rat; conditions: surface coated at 100 μg/ml
Description: (§2) To characterize peptide IV-H1, the interaction of the peptide with other cell lines was investigated. These cell lines include the highly metastatic human melanoma cell line A375 M (also provided by Dr. Fidler), which was maintained in MEM with added vitamins and 10% FBS; and the fibrosarcoma cell line UV2237 MM, which was maintained in DME with 10% FBS. Other cell lines studied included: the C6 rat glioma cell line (ATCC, #CCL107), which was maintained in DME plus 10% CS; the SCC9 human squamous carcinoma cell line (ATCC, #CRL1629), which was maintained in a 1:1 solution of DME and HAM F12 containing 10% FBS; the B65 and B104 murine neuroblastoma cell lines which were obtained from Dr. David Schubert at the Salk Institute (Schuber et al., Nature, 249, 224-227 (1974)) and maintained in F12H media with supplements; and bovine aortic endothelial cells, which were isolated and maintained as described by Herbst et al., J. Cell Biol., 106, 1365-1373 (1988), the disclosure of which is incorporated by reference herein.
as §1, with “triplicate. […]” for “triplicate.”

[4] = system: C6 glioma; experiment: as above; type: cell-based, rat; conditions: surface coated at 100 μg/ml
Description: as §2
as §1, with “triplicate. […]” for “triplicate.”

[5] = system: B65 neuroblastoma; experiment: as above; type: cell-based, rat; conditions: surface coated at 100 μg/ml
Description: as §2
as §1, with “triplicate. […]” for “triplicate.”

[6] = system: Squamous carcinoma cell line (SCC9); experiment: as above; type: cell-based, human; conditions: surface coated at 100 μg/ml
Experimental: (§3) To characterize peptide IV-H1, the interaction of the peptide with other cell lines was investigated. These cell lines include the highly metastatic human melanoma cell line A375 M (also provided by Dr. Fidler), which was maintained in MEM with added vitamins and 10% FBS; and the fibrosarcoma cell line UV2237 MM, which was maintained in DME with 10% FBS. […]
as §1, with “surfaces.” for “surfaces. Nonspecific cell adhesion to sites on the plastic was blocked by the use of a 10 mg/ml solution of BSA in Voller's carbonate buffer at 37° C. for 1 hr.”, “triplicate. […]” for “triplicate.”

[7] = system: A375 M melanoma; experiment: as above; type: cell-based, human; conditions: surface coated at 100 μg/ml
Experimental: as §3
as §1, with “surfaces.” for “surfaces. Nonspecific cell adhesion to sites on the plastic was blocked by the use of a 10 mg/ml solution of BSA in Voller's carbonate buffer at 37° C. for 1 hr.”, “triplicate. […]” for “triplicate.”

[8] = system: UV 2237 fibrosarcoma; experiment: as above; type: cell-based, murine; conditions: surface coated at 100 μg/ml
Experimental: as §3
as §1, with “surfaces.” for “surfaces. Nonspecific cell adhesion to sites on the plastic was blocked by the use of a 10 mg/ml solution of BSA in Voller's carbonate buffer at 37° C. for 1 hr.”, “triplicate. […]” for “triplicate.”

[9] = system: M4 melanoma cells; experiment: Melanoma cell motility in microchemotaxis chambers on coated filters; type: cell-based, mouse; conditions: 10 μg/ml solution
Experimental: In light of the involvement of cell adhesion and spreading in motility, peptide IV-H1 was studied for its ability to directly promote melanoma cell motility. Peptide-mediated M4 melanoma cell motility was examined in 48-well microchemotaxis chambers (Neuroprobe, Bethesda, MD) equipped with 8 μm pore size polyvinylpyrrolidone-free polycarbonate filters by a modification of a procedure described by Herbst et al., supra. Briefly, peptides were diluted in Voller's carbonate buffer and added in triplicate 50 μl aliquots to the lower wells of the chambers. The chambers were assembled with the filters in place and incubated overnight at 37° C. to allow the peptides to adsorb to the lower surfaces of the filters. The filters were then washed and transferred to fresh chambers which contained only media (DME containing 20 mM Hepes, pH 7.4). Cells were then added to the upper wells at 20,000/well in DME/Hepes media and incubated for 6 hr. at 37° C. in a humidified CO2 chamber. Filters were then washed, fixed and stained, and the number of cells which had migrated through the filters was quantitated using an Optomax Image Analysis System as described in Herbst et al., supra. Each experiment was repeated a minimum of three times. […] This compares with melanoma cell motility of 10-fold background levels in response to a 10 μg/ml solution of intact type IV collagen (FIG. 4b).

[10] = system: Bovine aortic endothelial cells; experiment: Cell adhesion and spreading on coated peptide IV-H1 or type IV collagen; type: cell-based; conditions: surface coated at 100 μg/ml
Experimental: as §3
as §1, with “surfaces.” for “surfaces. Nonspecific cell adhesion to sites on the plastic was blocked by the use of a 10 mg/ml solution of BSA in Voller's carbonate buffer at 37° C. for 1 hr.”, “triplicate. […]” for “triplicate.”

Compound	maximal inhibition of type IV collagen-mediated cell motility [1]	% AD (percent of input cells which adhered) [2]	% AD (percent of input cells which adhered) [3]	% AD (percent of input cells which adhered) [4]	% AD (percent of input cells which adhered) [5]	% AD (percent of input cells which adhered) [6]	% AD (percent of input cells which adhered) [7]	% AD (percent of input cells which adhered) [8]	melanoma cell motility [9]	% AD (percent of input cells which adhered) [10]
CC(C)[C@H](NC(=O)CN)C(=O)N[C@@H](CCCCN)C(=O)NCC(=O)N[C@@H](CC(=O)O)C(=O)N[C@@H](CCCCN)C(=O)NCC(=O)N[C@@H](CC(N)=O)C(=O)N1CCC[C@H]1C(=O)NCC(=O)N[C@@H](Cc1c[nH]c2ccccc12)C(=O)N1CCC[C@H]1C(=O)NCC(=O)N[C@@H](C)C(=O)N1CCC[C@H]1C(=O)O [peptide IV-H1, GVKGDKGNPGWPGAP] (H-GVKGDKGNPGWPGAP-OH)	80%									
Type IV Collagen: Type IV collagen extracted from the Englebreth Holm Swarm sarcoma grown in lathyritic mice		61.9%	18.6%	100.0%	7.7%	39.6%	50.3%	7.9%	10 -fold background levels	52.7%

Reference: patent publication US5082926A, “Polypeptide with type IV collagen cell adhesion, spreading and motility activity” (Regents of the University of Minnesota, priority 1989, dated 1992)
